Where “and” joins values, the source holds several entries; their conditions need not be identical. Identical values can stand only once. Like-named read-outs stand apart in the source and are kept apart here. Square brackets hold non-standard residues; d marks the D form. Ends that are not written are not given here. Peptide text beside a SMILES is read from it. Abu = CC[C@H](N)C(=O)O; Lac = C[C@H](O)C(=O)O

The IC50 is the concentration at which inhibition is half-maximal.

One test has as its target XIAP BIR3 (Homo sapiens, UniProt P98170). Briefly: Peptide–BIR3 binding assay.
In a further test the test system is XIAP BIR3 domain. To be noted: ref Nikolovska-Coleska et al., 2004; cited from earlier work.
In another test the target is GST–BIR3 (Homo sapiens, UniProt P98170). The test is classed as biochemical.
Chain of GST–BIR3 (P98170 241-356 limits assumed): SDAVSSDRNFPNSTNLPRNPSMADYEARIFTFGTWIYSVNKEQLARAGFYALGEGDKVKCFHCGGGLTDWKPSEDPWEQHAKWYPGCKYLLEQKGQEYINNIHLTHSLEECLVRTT
Where [1] appears, read: IC50, inhibition of Smac–BIR3 interaction, FMAT.

Chain of XIAP BIR3 (P98170 241-356 limits assumed): as above

Regarding `CC(C)[C@H](NC(=O)[C@H](C)N)C(=O)N1C[C@H](O)C[C@H]1C(=O)N[C@@H](Cc1ccccc1)C(N)=O` [Compound 20, AV–Hyp–F], on XIAP BIR3, the IC50 came out at 1000 nM.

`CC[C@H](C)[C@H](NC(=O)[C@H](C)N)C(=O)N[C@@H](C)C(=O)N[C@@H](Cc1ccc(O)cc1)C(N)=O` [Compound 8, AIAY] (H-AIAY-NH2): the IC50 at XIAP BIR3 worked out at 340 nM.

For the compound AVPIA-NH2 [Compound 3, AVPIA], the IC50 at XIAP BIR3 is 300 nM.

On to `C[C@H](N)C(=O)N[C@H](C(=O)N1CCC[C@H]1C(=O)N[C@@H](Cc1ccccc1)C(N)=O)[C@@H](C)O` [Compound 17, ATPF] (H-ATPF-NH2), for which the IC50 on XIAP BIR3 came to 200 nM.

With `CC[C@H](N)C(=O)N[C@H](C(=O)N1CCC[C@H]1C(=O)N[C@@H](Cc1ccccc1)C(N)=O)C(C)C` [Compound 9, Abu–VPF] (H-[Abu]VPF-NH2), the IC50 at XIAP BIR3 was 120 nM.

`CCCCCCCCCCCC1=C(O)C(=O)C=C(O)C1=O` [Embelin]: the concentration for half-maximal inhibition (IC50) with XIAP BIR3 domain is 4.1 µM.

With AVPIAQK-NH2 [Compound 1, AVPIAQK], the IC50 at XIAP BIR3 (setting [1]) is 400 nM and 390 nM; on GST–BIR3, 3000 nM.

On XIAP BIR3, `CC[C@H](C)[C@H](NC(=O)[C@H](C)N)C(=O)N1CCC[C@H]1C(=O)N[C@@H](Cc1ccccc1)C(N)=O` [Compound 16, AIPF] (H-AIPF-NH2) came in with an IC50 of 80 nM.

At XIAP BIR3, `CC(C)C[C@H](NC(=O)[C@H](C)N)C(=O)N1CCC[C@H]1C(=O)N[C@@H](Cc1ccccc1)C(N)=O` [Compound 15, ALPF] (H-ALPF-NH2) returned an IC50 of 180 nM.

On XIAP BIR3, `CC(C)[C@H](NC(=O)[C@H](C)O)C(=O)N1CCC[C@H]1C(=O)N[C@@H](Cc1ccccc1)C(N)=O` [Compound 14, Lac–VPF] (H-[Lac]VPF-NH2) showed an IC50 greater than 1600 nM.

For the compound `CC(C)[C@H](NC(=O)[C@@H](N)CO)C(=O)N1CCC[C@H]1C(=O)N[C@@H](Cc1ccccc1)C(N)=O` [Compound 10, SVPF] (H-SVPF-NH2), the IC50 at XIAP BIR3 was found to be 1000 nM.

In turn, AVPIAQ-NH2 [Compound 2, AVPIAQ] showed an IC50 on XIAP BIR3 (setting [1]) of 270 nM.

The compound `CC(C)[C@H](NC(=O)[C@H](C)N)C(=O)N[C@@H](C)C(=O)N[C@@H](Cc1ccccc1)C(N)=O` [Compound 6, AVAF] showed an IC50 on XIAP BIR3 of 750 nM.

Regarding AVPFAQK-NH2 [AVPFAQK], the IC50 against GST–BIR3 stood at 2000 nM.

On to `CC(C)[C@H](NC(=O)[C@H](C)N)C(=O)N1CCC[C@H]1C(N)=O` [Compound 5, AVP] (H-Ala-Val-Pro-NH2), for which the IC50 on XIAP BIR3 was greater than 10000 nM.

The record behind these values is article PMC2710984 (International Journal of Peptide Research and Therapeutics, 2006).
